# Laboratory results reported in paper PMC5071873, “The Effects of Puerarin on Rat Ventricular Myocytes and the Potential Mechanism” (Scientific Reports, 2016).
# Columns and labels:
# Format in all cases: cell-based
# Kv7.1 [1] = molecular target: T1, Kv7.1 (Homo sapiens, UniProt P51787); assay: Whole-cell patch clamp of Kv7.1 currents (voltage steps) in transfected HEK293 cells; conditions: activator alone, HEK293
# T1 construct: expressed in transfected cells; host or cells: HEK293
# Experimental: (§1) The Tyrode’s solution contained (mM): 126 NaCl, 5.4 KCl, 1.8 CaCl2, 1 MgCl2, 0.33 NaH2PO4, 10 HEPES and 10 glucose, pH 7.4 (adjusted with NaOH). The Ca^2+-free Tyrode’s solution was prepared by removing CaCl2 from the Tyrode’s solution. The Kreb’s solution used for cell storage contained (mM): 70 glutamic acid, 30 KCl, 15 taurine, 0.5 MgCl2, 10 KH2PO4, 0.5 EGTA, 10 HEPES, 10 glucose, and 1% albumin, pH 7.4 (adjusted with KOH). The enzyme solution used for the rat cardiomyocyte isolation contained 0.08 g/L collagenase (type II) and 1.0 g/L BSA in Kreb’s solution. For action potential recording on cardiomyocyte, the pipette solution contained (mM): 100 potassium aspartate, 30 KCl, 1 MgCl2, 5 Mg-ATP, 5 EGTA, 5 HEPES, pH 7.3 (adjusted with KOH); the Tyrode’s solution was used as the standard bath solution. For whole-cell recording of IKs on myocytes, the pipette solution contained (mM): 125 potassium aspartate, 20 KCl, 1 MgCl2, 5 Mg-ATP, 10 EGTA, 5 HEPES, pH 7.3 (adjusted with KOH); the bath solution contained (mM): 132 NaCl, 4 KCl, 1.8 CaCl2, 1.2 MgCl2, 10 HEPES, 5 glucose, pH 7.4 (adjusted with NaOH). 3 μM nifedipine and 5 μM E-4031 were used to block the calcium current and IKr, respectively. For whole-cell recording on HEK-293 cells, the pipette solution contained (mM): 140 KCl, 2 MgCl2, 10 HEPES, 0.1 EGTA, 4 K2-ATP, pH 7.3 (adjusted with KOH); the bath solution contained (mM): 120 NaCl, 5 KCl, 1.5 CaCl2, 1 MgCl2, 10 HEPES, 10 glucose, pH 7.4 (adjusted with NaOH). For single-channel recording, the pipette solution (extracellular) contained (mM): 145 KCl, 10 HEPES, 10 glucose, pH 7.4 (adjusted with KOH); the bath solution (intracellular) contained (mM): 145 KCl, 1.2 MgCl2, 10 HEPES, 0.1 EGTA, pH 7.38 (adjusted with KOH).
# (§2) Cell suspensions were transferred into a chamber on the stage of a Nikon Eclipse Ti inverted microscope (Tokyo, Japan). The whole-cell recordings were performed using isolated single ventricular myocytes. Patch electrodes were pulled from a horizontal microelectrode puller (P-1000, Sutter Instrument Co, USA) and fire polished to final tip resistance of 4.0–8.0 MΩ when filled with internal solutions. Signals were amplified with an Axopatch 200B amplifier (Axon Instruments, USA) and filtered at 1 kHz. The pCLAMP 9.0 software was used to generate current and voltage clamp protocols, acquire data, and analyse the current traces. The whole-cell series resistance was compensated to more than 80%. All of the experiments were performed at room temperature (22 ± 1 °C). The whole-cell IK1 was elicited by a ramp voltage protocol from −140 to + 40 mV in 1 s, or at a 0 mV holding potential to test potentials from −140 to + 40 mV in 10 mV increments. The IK1 was calculated as the difference between the peak inward current and the holding current level. The whole-cell Kv7.1/IKs were elicited from a −30 mV holding potential to test potentials from −80 to + 40 mV in 10 mV increments.
# (§3) Human Kir2.1 cDNA, Kir2.3 cDNA, Kv7.1 cDNA and KCNE1 cDNA, was cloned in Human Embryonic Kidney 293 cells, respectively. In some cases, Kv7.1 cDNA and KCNE1 cDNA were simultaneously cloned in Human Embryonic Kidney 293 cells.
# Kv7.1 [2] = molecular target: T1, Kv7.1; assay: Single-channel inside-out patch clamp recording of Kv7.1; conditions: 293B applied after puerarin 100 μM
# Experimental: as §1, with “3 μM nifedipine and 5 μM E-4031 were used to block the calcium current and IKr, respectively. For whole-cell recording on HEK-293 cells, the pipette solution contained (mM): 140 KCl, 2 MgCl2, 10 HEPES, 0.1 EGTA, 4 K2-ATP, pH 7.3 (adjusted with KOH); the bath solution contained (mM): 120 NaCl, 5 KCl, 1.5 CaCl2, 1 MgCl2, 10 HEPES, 10 glucose, pH 7.4 (adjusted with NaOH). For single-channel recording, the pipette solution (extracellular) contained (mM): 145 KCl, 10 HEPES, 10 glucose, pH 7.4 (adjusted with KOH); the bath solution (intracellular) contained (mM): 145 KCl, 1.2 MgCl2, 10 HEPES, 0.1 EGTA, pH 7.38 (adjusted with KOH).” left out
# (§4) Single-channel activity was recorded at a series of holding levels ranging from 10 mV of 50 mV. […] Single-channel events were listed and analysed by pclampfit 9.0 (single-channel search-in-analyse function). […]
# IKs channel = molecular target: T2, IKs channel (Homo sapiens, UniProt P51787); assay: Single-channel inside-out patch clamp recording of IKs; conditions: 293B applied after puerarin 100 μM
# T2 construct: expressed in transfected cells; host or cells: HEK293
# Experimental: as §1, with “3 μM nifedipine and 5 μM E-4031 were used to block the calcium current and IKr, respectively. For whole-cell recording on HEK-293 cells, the pipette solution contained (mM): 140 KCl, 2 MgCl2, 10 HEPES, 0.1 EGTA, 4 K2-ATP, pH 7.3 (adjusted with KOH); the bath solution contained (mM): 120 NaCl, 5 KCl, 1.5 CaCl2, 1 MgCl2, 10 HEPES, 10 glucose, pH 7.4 (adjusted with NaOH). For single-channel recording, the pipette solution (extracellular) contained (mM): 145 KCl, 10 HEPES, 10 glucose, pH 7.4 (adjusted with KOH); the bath solution (intracellular) contained (mM): 145 KCl, 1.2 MgCl2, 10 HEPES, 0.1 EGTA, pH 7.38 (adjusted with KOH).” left out
# as §4
# [3] = molecular target: T3, IKs channels (KCNQ and KCNE) (Homo sapiens, UniProt P51787); assay: Whole-cell patch clamp of IKs currents (Kv7.1 + KCNE1, voltage steps) in transfected HEK293 cells
# T3 construct: expressed in transfected cells; host or cells: HEK293
# Experimental: as §1, §2, §3
# IKs = molecular target: T4, IKs (Rattus norvegicus, UniProt Q9Z0N7); assay: Whole-cell recording of IKs on rat ventricular myocytes; conditions: forskolin alone
# T4 construct: endogenous in cells; host or cells: isolated adult rat ventricular myocytes
# Experimental: as §1, with “3 μM nifedipine and 5 μM E-4031 were used to block the calcium current and IKr, respectively. For whole-cell recording on HEK-293 cells, the pipette solution contained (mM): 140 KCl, 2 MgCl2, 10 HEPES, 0.1 EGTA, 4 K2-ATP, pH 7.3 (adjusted with KOH); the bath solution contained (mM): 120 NaCl, 5 KCl, 1.5 CaCl2, 1 MgCl2, 10 HEPES, 10 glucose, pH 7.4 (adjusted with NaOH). For single-channel recording, the pipette solution (extracellular) contained (mM): 145 KCl, 10 HEPES, 10 glucose, pH 7.4 (adjusted with KOH); the bath solution (intracellular) contained (mM): 145 KCl, 1.2 MgCl2, 10 HEPES, 0.1 EGTA, pH 7.38 (adjusted with KOH).” left out
# Cell suspensions were transferred into a chamber on the stage of a Nikon Eclipse Ti inverted microscope (Tokyo, Japan). […] The IK1 was calculated as the difference between the peak inward current and the holding current level. […]
# rat ventricular myocytes = assay: Action potential recording on isolated rat ventricular myocytes; conditions: isoproterenol 10 nM, comparing with control
# Experimental: as §1
# Single ventricular myocytes were isolated from adult rat hearts via enzymatic dissociation as previously described. Briefly, the rats were anesthetised with 25% chloral hydrate (0.1 g/100 g). Their hearts were excised rapidly and retrogradely perfused on a Langendorff apparatus with a Ca^2+-free Tyrode’s solution for 5 min before the perfusate was switched to an enzymatic solution for 10–20 min. The perfusate was finally changed to Kreb’s solution for 5 min. The perfusates were bubbled with 95% O2 + 5% CO2 and maintained at 37 °C. The ventricles w ere cut into small chunks and gently agitated in Kreb’s solution. The cells were filtered through nylon mesh (pore size 200 μm) and stored in Kreb’s solution at 4 °C.
# Action potentials were elicited at 1 Hz by 2 ms current pulses applied using the patch pipette.
# as §2
compound,measurement,setting,value
"8-Bromoadenosine-3′, 5′-cyclic monophosphorothioate [8-Br-cAMP]",effect on Kv7.1 current,Kv7.1 [1],significantly enhanced
CCS(=O)(=O)N(C)[C@H]1c2cc(C#N)ccc2OC(C)(C)[C@@H]1O [293B],open probability of Kv7.1 channel,Kv7.1 [2],further abolished
same,open probability of IKs channel,IKs channel,further abolished
O=C(O)[C@H]1O[C@@H](Oc2cc3oc(-c4ccccc4)cc(=O)c3c(O)c2O)[C@H](O)[C@@H](O)[C@@H]1O [Baicalin],maximal increased effect upon IKs currents,[3]; HEK293,57.32 ± 3.07%
same,"saturation dosage, enhancement of IKs",[3]; HEK293,1 mM
same,EC50,"[3]; at the peak currents, non-linear Hill fit, read-out: EC50, enhancement of IKs currents",138 µM
same,"Hill coefficient, enhancement of IKs",[3]; non-linear Hill fit,0.993
C=C[C@@]1(C)CC(=O)[C@]2(O)[C@@]3(C)[C@@H](O)CCC(C)(C)[C@@H]3[C@H](O)[C@H](OC(C)=O)[C@@]2(C)O1 [Forskolin],effect on Kv7.1 current,Kv7.1 [1],significantly enhanced
same,effect on IKs current in rat cardiac myocytes,IKs,significantly enhanced
CC(C)NCC(O)c1ccc(O)c(O)c1 (centres unmarked) [Isoproterenol],effect on Kv7.1 current,Kv7.1 [1],significantly enhanced
same,effect on APD of rat ventricles,rat ventricular myocytes,significantly shortened
